Consider twelve compounds from ChEMBL document CHEMBL1155532 (Bioorg Med Chem Lett, 2010).

Molecules are shown by their SMILES.

Test [1] has as its target T1, Fatty acid-binding protein, adipocyte (Homo sapiens, UniProt P15090). Description: Displacement of 8-anilino-1-naphthalene-sulfonic acid from human His-FABP4 expressed in Escherichia coli BL21 (DE3) cells after 3 mins.
Target sequence in this assay (P15090 whole entry): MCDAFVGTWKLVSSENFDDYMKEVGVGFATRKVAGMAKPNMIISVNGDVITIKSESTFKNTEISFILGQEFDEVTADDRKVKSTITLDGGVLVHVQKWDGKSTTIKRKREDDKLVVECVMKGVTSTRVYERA
In test [2] the target is T1, Fatty acid-binding protein, adipocyte. As to the kind of experiment: Displacement of 8-anilino-1-naphthalene-sulfonic acid from human His-FABP4 expressed in Escherichia coli BL21 (DE3) cells at 100 uM after 3 mins.
Target sequence in this assay (P15090 2-132 limits assumed): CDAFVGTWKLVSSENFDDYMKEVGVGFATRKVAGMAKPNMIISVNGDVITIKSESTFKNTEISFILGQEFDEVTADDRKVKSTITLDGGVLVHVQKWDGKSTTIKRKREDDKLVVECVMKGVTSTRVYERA
The nature of test [3]: Displacement of 8-anilino-1-naphthalene-sulfonic acid from human FABP4 F16A mutant expressed in Escherichia coli BL21 (DE3) cells after 3 mins.
Test [4] deals with T1, Fatty acid-binding protein, adipocyte. As to the kind of experiment: Displacement of 8-anilino-1-naphthalene-sulfonic acid from human His-FABP4 expressed in Escherichia coli BL21 (DE3) cells after 3 mins relative to linoleic acid.
Target sequence in this assay (P15090 whole entry): as the sequence (P15090 whole entry) above
For test [5], the target named is Fatty acid-binding protein, heart (Homo sapiens, UniProt P05413). As to the kind of experiment: Displacement of 8-anilino-1-naphthalene-sulfonic acid from human His-FABP3 expressed in Escherichia coli BL21 (DE3) cells after 3 mins relative to linoleic acid.
The species named for test [6] is Homo sapiens. Description: Selectivity index, ratio of IC50 for His-human FABP3 to IC50 for human His-FABP4.
The species named for test [7] is Homo sapiens. Description: Selectivity ratio of IC50 for human FABP4 F126A mutant to IC50 for human wild type FABP4.
The species entered for test [8] is Homo sapiens. As to the kind of experiment: Selectivity ratio of IC50 for human FABP4 F106A mutant to IC50 for human wild type FABP4.
Test [9] deals with BL21-DE3. As to the kind of experiment: Displacement of 8-anilino-1-naphthalene-sulfonic acid from human FABP4 F16A mutant expressed in Escherichia coli BL21 (DE3) cells at 700 uM after 3 mins.
Test [10] deals with BL21-DE3. Description: Displacement of 8-anilino-1-naphthalene-sulfonic acid from human FABP4 F16A mutant expressed in Escherichia coli BL21 (DE3) cells at 500 uM after 3 mins.

Sequence of Fatty acid-binding protein, heart (P05413 whole entry): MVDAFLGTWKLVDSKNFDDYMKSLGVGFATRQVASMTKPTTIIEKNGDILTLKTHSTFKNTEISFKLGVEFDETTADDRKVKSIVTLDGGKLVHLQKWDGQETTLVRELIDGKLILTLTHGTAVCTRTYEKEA

As a reminder, the IC50 is the concentration at which inhibition is half-maximal. The low end stands for inhibition by little substance, the high end for a need for much substance. A word on the inhibition: it is the drop in the measured response relative to a control, in per cent. Turning to `O=[N+]([O-])c1ccc(S(=O)(=O)c2ccccc2)cc1OS(=O)(=O)c1cc(Cl)cc(Cl)c1`, the IC50 in test [1] is > 100 µM. This compound came in with an inhibition in [2] of 40.7%.
With `CCCCCCCC/C=C\CCCCCCCC(=O)O`, in test [2], the inhibition is 66.8%.
Take `COc1ccc(-c2c(C(F)(F)F)nn(C)c2NC(=O)CSCC(=O)O)cc1`: the IC50 in test [1] is > 100 µM. Further, the inhibition in test [2] was 20.1%.
`O=C(O)CSCC(=O)NCc1c(Cl)cccc1Oc1ccccc1`: the IC50 was determined as 76.5 µM in test [3], 3.1 µM in test [4], 42.2 µM in test [1] and 1.9 µM in test [5]. Further, the Ratio IC50 came to 0.6 in the test listed under Homo sapiens [6], 6.6 in the test filed under Homo sapiens [7] and 3.4 in the test listed under Homo sapiens [8]. For the same compound, the inhibition in test [2] came to 62.5%.
Regarding `c1cc(CSc2nc3ccccc3[nH]2)nc(CSc2nc3ccccc3[nH]2)c1`, in [1], the IC50 was > 100 µM. The inhibition in test [2] was determined as 47.7%.
Turning to `O=C(O)CSCC(=O)Nc1ccc(F)c(Cl)c1`, the half-maximal inhibitory concentration (IC50) in test [4] is 4.4 µM; in test [1], 59.5 µM; in [5] it was > 432 µM. In the test filed under Homo sapiens [6], the Ratio IC50 is > 99. In test [2], the inhibition came out at 56.2%.
As to `COC(=O)c1cc(OC)c(OC)cc1NC(=O)CSCC(=O)O`, in [1], the IC50 is > 100 µM. In addition, the inhibition in test [2] worked out at 46.9%.
`O=C(O)CSCC(=O)NCc1ccccc1N1CCCCC1`: the IC50 in [4] came to 4.1 µM; in test [1] it was 56.3 µM; in [5] it was 6.3 µM. For the same compound, the Ratio IC50 in the test filed under Homo sapiens [6] was determined as 1.5. In test [2], this compound gave an inhibition of 58.7%.
On to `O=c1[nH]nc(SCCS(=O)(=O)c2ccc(Cl)cc2Cl)n1-c1ccc2c(c1)OCCO2`, for which the IC50 in test [1] was > 100 µM. In addition, in test [2], the inhibition is 37.1%.
On to `O=C(O)CSCC(=O)Nc1cc(Cl)cc(Cl)c1`, for which the concentration for half-maximal inhibition (IC50) in test [4] was 1 µM; in [1] it was 13.5 µM; in [5], > 144 µM. The results for the inhibition (with BL21-DE3 [9]; with BL21-DE3 [10]; in test [2]) were 57%, 50.7% and 84.9%, respectively. For the same compound, the Ratio IC50 in the test listed under Homo sapiens [6] is > 144; in the test listed under Homo sapiens [7], 11.1; in the test filed under Homo sapiens [8] it was 1.3.
For the compound `CCCCC/C=C\C/C=C\CCCCCCCC(=O)O`, the inhibition came out at 39% with BL21-DE3 [9], 36.9% in the test with BL21-DE3 [10] and 81.4% in test [2].
For `Cc1ccc(SC(CC(=O)c2ccc(C)cc2)C(=O)O)cc1` (stereo not drawn), the half-maximal inhibitory concentration (IC50) in test [1] was > 100 µM. For the same compound, in test [2], the inhibition stood at 44.4%.
